Test results from ChEMBL document CHEMBL5053510, “Discovery of AS-1763: A Potent, Selective, Noncovalent, and Orally Available Inhibitor of Bruton's Tyrosine Kinase” (J Med Chem, 2021).

Assays:
[1] = test system: OCI-Ly10; assay: Antiproliferative activity against human OCILY10 cells assessed as reduction in cell proliferation measured after 96 hrs; assay type: functional, cell-based; settings: OCI-Ly10, 96 h
[2] = biological target: Tyrosine-protein kinase BTK (Homo sapiens, UniProt Q06187); assay: Inhibition of human BTK-A using phosphorylated substrate in presence of ATP by microplate reader assay
Tyrosine-protein kinase BTK, sequence (Q06187 whole entry): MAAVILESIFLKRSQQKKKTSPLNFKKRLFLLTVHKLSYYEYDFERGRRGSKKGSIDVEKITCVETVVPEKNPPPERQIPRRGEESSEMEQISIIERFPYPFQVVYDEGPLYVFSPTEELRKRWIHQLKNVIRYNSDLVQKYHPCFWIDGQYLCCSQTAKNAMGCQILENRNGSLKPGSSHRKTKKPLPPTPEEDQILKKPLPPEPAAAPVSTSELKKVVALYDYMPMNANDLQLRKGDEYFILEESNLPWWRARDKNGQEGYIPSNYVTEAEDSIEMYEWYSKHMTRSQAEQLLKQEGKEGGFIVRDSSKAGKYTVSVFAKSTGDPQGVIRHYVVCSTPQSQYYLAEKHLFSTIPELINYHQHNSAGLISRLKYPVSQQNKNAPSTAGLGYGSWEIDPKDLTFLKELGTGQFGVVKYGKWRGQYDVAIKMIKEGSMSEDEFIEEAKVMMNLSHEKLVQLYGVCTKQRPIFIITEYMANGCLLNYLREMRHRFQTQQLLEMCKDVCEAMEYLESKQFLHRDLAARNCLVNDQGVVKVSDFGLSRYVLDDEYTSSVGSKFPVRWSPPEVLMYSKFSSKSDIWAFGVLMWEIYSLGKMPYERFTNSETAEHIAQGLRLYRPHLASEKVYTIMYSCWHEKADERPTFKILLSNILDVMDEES

Row | SMILES | IC50 [1] | IC50 [2]
1 | Nc1nc(-c2cccc(-n3ccc4cc(C5CC5)cc(F)c4c3=O)c2CO)c2cc(C3=CCN(C(=O)CN4CCOCC4)CC3)[nH]c2n1 | 13 nM | 0.69 nM
2 | Nc1nc(-c2cccc(-n3ccc4cc(C5CC5)cc(F)c4c3=O)c2CO)c2cc[nH]c2n1 | – | 51 nM
3 | Nc1nc(-c2cccc(-n3ccc4cc(C5CC5)cc(F)c4c3=O)c2CO)c2cc(-c3cccnc3)[nH]c2n1 | – | 2.1 nM
